Patent US12083102B2, “Method for treating inflammatory disorders” (DIMERIX BIOSCIENCE PTY LTD, priority 2011, dated 2024)
“Also recorded” adds a separate entry of the source.

Key:
diabetic nephropathy = conditions: patients; Lewis (1993); cited from earlier work
[1] = system: mouse models of multiple sclerosis, renal ischemia-reperfusion injury, ureter obstruction, diabetic nephropathy; rat model of arthritis; conditions: Tesch (2008); cited from earlier work
MCP-1 = conditions: Yokochi (2001); Yamada (2004); cited from earlier work
monocytes = conditions: Yokochi (2001); cited from earlier work
[2] = molecular target: T1, AT1R-Rluc8 and the untagged CCR2 (Homo sapiens, UniProt P30556+P41597); assay type: cell-based; conditions: HEK293FT cells, FIG. 5 bottom; for MCP-1-induced BRET, AT1R-Rluc8, β-arrestin2-Venus and untagged CCR2: 100 nM MCP-1
T1 construct: expressed in transfected cells; host or cells: HEK293FT
Source text: (§3) Data represent mean±SEM of three independent experiments performed in triplicate.
HEK293FT cells were transiently transfected with plasmids coding for β-arrestin2-Venus and the indicated receptors: CCR2-Rluc8 (top panel), AT1R-Rluc8 (middle panel) or AT1R-Rluc8 and the untagged CCR2 (bottom panel).

AT1R-Rluc8 and CCR2 [3] = molecular target: T2, AT1R-Rluc8 and CCR2 (Homo sapiens, UniProt P30556+P41597); test: Inositol phosphate (IP1) production (Example 6, bottom panel); assay type: cell-based; conditions: HEK293FT cells, FIG. 8 bottom
T2 construct: expressed in transfected cells; host or cells: HEK293FT
Experimental: (§1) Data are shown as induced IP1 (arbitrary units).
(§2) The cells were then lysed by adding the HTRF® assay reagents, the Terbium Cryptate-labeled anti-IP1 antibody, and the d2-labeled IP1 analog, previously diluted in the lysis buffer containing 1% Triton X-100. The assay was incubated for 1 hour at room temperature, and Terbium Cryptate fluorescence and the time resolved FRET signal were measured 50 μs after excitation at 340, 620, and 665 nm, respectively, using the EnVision 2102 multilabel plate reader (PerkinElmer). Data are shown as induced IP1 (arbitrary units). The IP-One Tb kit is a competition assay and so induction of IP1 results in a decrease in absolute assay signal. Therefore, the induced IP1 (arbitrary units) is generated by subtracting the ligand-induced assay signal from the basal assay signal.

AT1R-Rluc8 and CCR2 [4] = molecular target: T2, AT1R-Rluc8 and CCR2; test: Inositol phosphate (IP1) production (Example 4, bottom panel); assay type: cell-based; conditions: HEK293FT cells, FIG. 6 bottom; for AngII-induced IP1 production, cells co-expressing AT1R-Rluc8 and CCR2 / MCP-1-induced IP1 production, cells co-expressing AT1R-Rluc8 and CCR2: antagonist 10 μM; for AngII-induced IP1 production, cells co-expressing AT1R-Rluc8 and CCR2: 100 nM AngII; for MCP-1-induced IP1 production, cells co-expressing AT1R-Rluc8 and CCR2: 100 nM MCP-1
Source text: as §3

AT1R-Rluc8 [5] = molecular target: T3, AT1R-Rluc8 (Homo sapiens, UniProt P30556); test: Inositol phosphate (IP1) production (Example 4, top panel); assay type: cell-based; conditions: HEK293FT cells; antagonist 10 μM; 100 nM AngII; no CCR2; FIG. 6 top
T3 construct: expressed in transfected cells; host or cells: HEK293FT
T3 sequence (P30556 1-359): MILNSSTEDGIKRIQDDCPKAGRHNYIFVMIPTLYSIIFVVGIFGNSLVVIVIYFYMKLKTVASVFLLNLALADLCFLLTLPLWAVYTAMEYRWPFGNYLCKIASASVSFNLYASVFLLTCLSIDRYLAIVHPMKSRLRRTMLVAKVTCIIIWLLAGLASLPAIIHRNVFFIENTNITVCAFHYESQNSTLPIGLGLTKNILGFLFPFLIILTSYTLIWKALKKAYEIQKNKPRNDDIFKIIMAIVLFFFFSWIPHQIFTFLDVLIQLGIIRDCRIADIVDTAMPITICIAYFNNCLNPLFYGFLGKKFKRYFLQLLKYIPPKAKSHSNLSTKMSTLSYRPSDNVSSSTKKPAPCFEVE

AT1R-Rluc8 [6] = molecular target: T3, AT1R-Rluc8; assay type: cell-based; conditions: HEK293FT cells; antagonist 10 μM; 100 nM AngII; FIG. 5 middle
[7] = molecular target: CCR2-Rluc8 and HA-tagged AT1R (Homo sapiens, UniProt P30556+P41597); conditions: HEK293FT cells, FIG. 7 bottom; for MCP-1-induced BRET, CCR2-Rluc8, β-arrestin2-Venus and HA-tagged AT1R: 100 nM MCP-1
AT1R-Rluc8 [8] = molecular target: T3, AT1R-Rluc8; test: Inositol phosphate (IP1) production (Example 6, top panel); assay type: cell-based; conditions: HEK293FT cells; antagonist 10 μM; 100 nM AngII; no CCR2; FIG. 8 top
Experimental: as §1, §2

T1 sequence (P41597 whole entry, one chain of several): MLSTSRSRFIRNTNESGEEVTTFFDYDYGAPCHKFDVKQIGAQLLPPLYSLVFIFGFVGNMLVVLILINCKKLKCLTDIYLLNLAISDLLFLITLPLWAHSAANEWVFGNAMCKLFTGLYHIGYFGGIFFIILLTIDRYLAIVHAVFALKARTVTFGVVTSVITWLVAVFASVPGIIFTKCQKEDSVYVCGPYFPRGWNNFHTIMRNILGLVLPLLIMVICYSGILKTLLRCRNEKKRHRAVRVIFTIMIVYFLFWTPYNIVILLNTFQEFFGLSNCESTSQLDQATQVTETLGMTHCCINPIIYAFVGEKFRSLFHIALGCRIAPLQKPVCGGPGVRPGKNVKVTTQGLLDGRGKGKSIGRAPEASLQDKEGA
T2 sequence (P41597 whole entry, one chain of several): as above
CCR2-Rluc8 and HA-tagged AT1R, sequence (P41597 whole entry, one chain of several): as above

Molecule: C[C@H](CS)C(=O)N1CCC[C@H]1C(=O)O [captopril]
- progression of diabetic nephropathy (diabetic nephropathy): did not halt the progression of diabetic nephropathy in the vast majority of patients

Molecule: 3-oxygermylpropionic acid polymer [Propagermanium]
- inflammation in mouse models of multiple sclerosis, renal ischemia-reperfusion injury, ureter obstruction, diabetic nephropathy and a rat model of arthritis [1]: suppress inflammation
- MCP-1 binding (MCP-1): does not inhibit
- in vitro chemotactic migration of monocytes by MCP-1 (monocytes): specifically inhibit; also recorded: inhibits

Molecule: MCP-1: Monocyte chemotactic protein-1, also known as monocyte chemoattractant protein-1
- agonist-induced BRET, AT1R-Rluc8, β-arrestin2-Venus and untagged CCR2 ([2]; 100 nM agonist): induced BRET increases to different degrees
- agonist-stimulated IP1 response, cells co-expressing AT1R-Rluc8 and CCR2 (AT1R-Rluc8 and CCR2 [3]; 100 nM agonist): seems to stimulate a partial IP1 response
- agonist-stimulated IP1 response, cells co-expressing AT1R-Rluc8 and CCR2 (AT1R-Rluc8 and CCR2 [4]; 100 nM agonist): seems to stimulate a partial IP1 response

Molecule: CCO[C@H]1CN(C2CCC(O)(c3ccc4c(c3)OCO4)CC2)C[C@@H]1NC(=O)CNC(=O)c1cccc(C(F)(F)F)c1 (stereo partly drawn) [INCB3344]
- inflammation in mouse models of multiple sclerosis, renal ischemia-reperfusion injury, ureter obstruction, diabetic nephropathy and a rat model of arthritis [1]: suppress inflammation

Molecule: CCCCC1=NC2(CCCC2)C(=O)N1Cc1ccc(-c2ccccc2-c2nn[nH]n2)cc1 [Irbesartan, 2-butyl-3-({4-[2-(2H-1,2,3,4-tetrazol-5-yl)phenyl]phenyl}methyl)-1,3-diazaspiro[4.4]non-1-en-4-one]
- AngII-induced IP1 production, cells expressing AT1R-Rluc8 (AT1R-Rluc8 [5]): substantially abolished
- AngII-induced BRET, AT1R-Rluc8, β-arrestin2-Venus and untagged CCR2 ([2]; antagonist 10 μM, 100 nM AngII): substantially block
- MCP-1-induced BRET, AT1R-Rluc8, β-arrestin2-Venus and untagged CCR2 ([2]; antagonist 10 μM): not the MCP-1-induced BRET
- AngII-induced BRET response, AT1R-Rluc8 and β-arrestin2-Venus (AT1R-Rluc8 [6]): substantially blocked
- AngII-induced BRET, CCR2-Rluc8, β-arrestin2-Venus and HA-tagged AT1R ([7]; antagonist 10 μM, 100 nM AngII): partially blocked
- MCP-1-induced BRET, CCR2-Rluc8, β-arrestin2-Venus and HA-tagged AT1R ([7]; antagonist 10 μM): not the MCP-1-promoted BRET signal
- AngII-induced IP1 production, cells co-expressing AT1R-Rluc8 and CCR2 (AT1R-Rluc8 and CCR2 [4]): substantially inhibiting
- MCP-1-induced IP1 production, cells co-expressing AT1R-Rluc8 and CCR2 (AT1R-Rluc8 and CCR2 [4]): partially reduced

Molecule: Cc1ccc2c(c1)C1(CCN(CCc3nc(-c4ccccc4)oc3C)CC1)OC(=O)N2 [RS504393]
- AngII-induced IP1 production, cells expressing AT1R-Rluc8 (AT1R-Rluc8 [5]): not RS504393, substantially abolished
- inflammation in mouse models of multiple sclerosis, renal ischemia-reperfusion injury, ureter obstruction, diabetic nephropathy and a rat model of arthritis [1]: suppress inflammation
- MCP-1-induced BRET, AT1R-Rluc8, β-arrestin2-Venus and untagged CCR2 ([2]; antagonist 10 μM): partially blocked
- AngII-induced BRET response, AT1R-Rluc8 and β-arrestin2-Venus (AT1R-Rluc8 [6]): not RS504393 substantially blocked
- AngII-induced IP1 production, cells co-expressing AT1R-Rluc8 and CCR2 (AT1R-Rluc8 and CCR2 [3]; antagonist 10 μM, 100 nM AngII): little effect
- MCP-1-induced IP1 response, cells co-expressing AT1R-Rluc8 and CCR2 (AT1R-Rluc8 and CCR2 [3]; antagonist 10 μM, 100 nM MCP-1): substantially and selectively inhibited
- MCP-1-induced BRET, CCR2-Rluc8, β-arrestin2-Venus and HA-tagged AT1R ([7]; antagonist 10 μM): substantially inhibited
- BRET response with combined treatment with MCP-1 and AngII, CCR2-Rluc8 and HA-tagged AT1R ([7]; antagonist(s) 10 μM, 100 nM MCP-1 and AngII): a substantial BRET signal remained
- AngII-induced IP1 production, cells expressing AT1R-Rluc8 (AT1R-Rluc8 [8]): not RS504393, abolished
- AngII-induced IP1 production, cells co-expressing AT1R-Rluc8 and CCR2 (AT1R-Rluc8 and CCR2 [4]): little effect
- MCP-1-induced IP1 production, cells co-expressing AT1R-Rluc8 and CCR2 (AT1R-Rluc8 and CCR2 [4]): substantially and selectively inhibited
